Series [1] is described as follows: Toxicity assay in RD cells (CCK-8). Type of series: cell-based. Conditions: human. The protocol:
(§1) (1) Different cells were plated in a 96-well plate at 100 μL per well.
(§2) (2) When the cells grew to a confluence of 70%-80%, the DMEM medium containing 10% serum was replaced with a DMEM medium containing 2% serum, and a certain concentration gradient of polypeptide RQ was added, so that the final concentrations of the polypeptide in the wells were 0.073242 μM, 0.146484 μM, 0.292969 μM, 0.585938 μM, 1.171875 μM, 2.34375 μM, 4.6875 μM, 9.375 μM, 18.75 μM, 37.5 μM, 75 μM, 150 μM, and 300 μM, respectively.
(§3) (3) The samples were collected 24 h after the addition of the polypeptide, and then 10 μL of live cell detection reagent CCK-8 was added to each well and mixed well.
(§4) (4) The plate was placed at 37° C. for 2 h.
(§5) (5) The absorbance value at OD450 was detected by a microplate reader.
(§6) (1) RD cells were plated in a 96-well plate at 100 μL per well.
(§7) (2) When the cells grew to a confluence of 70%-80%, the DMEM medium containing 10% serum was replaced with a DMEM medium containing 2% serum, and B-RQ was added so that the final concentrations in the wells were 0.46 μM, 2.34 μM, 4.68 μM, 9.37 μM, 18.75 μM, 37.5 μM, 75 μM, and 150 μM.

Series [2] deals with RD cells. Kind of series: Toxicity assay in RD cells (CCK-8). Type of series: cell-based. Conditions: RD cells, 24 h. On the procedure:
as §1, §2, §3, §4, §5, §6, §7

The subject of series [3] is Echo 11. The series can be described thus: Inhibition of Echo 11 in RD cells (viral RNA, qRT-PCR). Type of series: cell-based. Conditions: inhibiting Echo 11 in RD cells. On the procedure:
(§8) (1) RD cells were plated in a 24-well plate.
(2) When the cells grew to a confluence of 70%-80%, the DMEM medium containing 10% serum was replaced with a DMEM medium containing 2% serum (the DMEM medium containing 2% serum was added in each well at an amount of 0.5 mL), and 5 μL of Echo 11 virus of 1×10^6 PFU/mL was added to each well.
(§9) (3) After 1 h, the polypeptides with final concentrations of 0.3125 μM, 0.625 μM, 1.25 μM, 2.5 μM, and 5 μM were added respectively. The group without polypeptide added was used as a control.
(4) The samples were collected 24 h after the infection of Echo 11 virus, and RNA was extracted with the total RNA extraction kit.
(§10) (5) The supernatant was discarded, then 350 μL of TRK lysate was added to each well, and the plate was put on a shaker for 5 min.
(§11) (6) 350 μL of 70% ethanol (DEPC) was added to each well, and then the plate was put on a shaker for 5 min.
(§12) (7) The solution in each well was transferred to a RNA extraction column for 1 min of centrifugation at 12000 g.
(§13) (8) The solution obtained in the recovery tube was reloaded on the column again for 1 min of centrifugation at 12000 g.
(§14) (9) RNA washing buffer 1 was added in the column for 30 s of centrifugation at 12000 g. […]
(§15) (14) 2 μL of RNA sample was subjected to a fluorescence quantitative experiment using the one step qRT-PCR kit. […]

Series [4] concerns CVB3. Kind of series: Inhibition of CVB3 in RD cells (viral RNA, qRT-PCR). Format: cell-based. The note with it: inhibiting CVB3 in RD cells. On the procedure:
as §8
(2) When the cells grew to a confluence of 70%-80%, the DMEM medium containing 10% serum was replaced with a DMEM medium containing 2% serum (the DMEM medium containing 2% serum was added in each well at an amount of 0.5 mL), and 5 μL of CVB3 virus of 1×10^6 PFU/mL was added to each well.
as §9
(4) The samples were collected 24 h after the infection of CVB3 virus, and RNA was extracted with the total RNA extraction kit.
as §10, §11, §12, §13, §14, §15

Series [5] relates to polypeptide RQ.
Series [6] deals with cell-penetrating peptide YGRKKRRQRRR (TAT).

Several values for one entry are separate records, joined by “and”; a condition that tells them apart may be missing. Identical values can stand only once. Entries after “also recorded” stand apart in the source; their conditions may differ. A value given as a limit tells only on which side of the number the result lay.

Data on two compounds can be found in patent US20250263436A1, “BROAD-SPECTRUM ANTIVIRAL DRUG FOR ENTEROVIRUS, AND APPLICATION” (WUHAN INSTITUTE OF VIROLOGY, CHINESE ACADEMY OF SCIENCES, priority 2020, published 2025).

The viability is a per cent measure of how many cells are alive, often set against a control. As usually defined, the CC50 is the concentration at which the toxic effect on the cells reaches its halfway point. A lower CC50 goes with harm at low concentration. A word on the IC50: it is the point on the concentration scale where inhibition reaches its midpoint. Low values mean inhibition by little substance, high ones a need for much substance.

For the compound `CC(C)C[C@H](NC(=O)[C@H](C)NC(=O)[C@H](CCC(=O)O)NC(=O)[C@H](CC(C)C)NC(=O)[C@@H](NC(=O)[C@H](C)NC(=O)CNC(=O)[C@@H](NC(=O)[C@H](CO)NC(=O)[C@H](Cc1c[nH]cn1)NC(=O)[C@H](CCCNC(=N)N)NC(=O)[C@H](Cc1c[nH]cn1)NC(=O)[C@H](CC(N)=O)NC(=O)[C@H](Cc1ccc(O)cc1)NC(=O)[C@H](CCC(=O)O)NC(=O)[C@H](CCCNC(=N)N)NC(=O)CNC(=O)[C@H](CO)NC(=O)CNC(=O)[C@H](CCCNC(=N)N)NC(=O)[C@H](CCCNC(=N)N)NC(=O)[C@H](CCCNC(=N)N)NC(=O)[C@H](CCC(N)=O)NC(=O)[C@H](CCCNC(=N)N)NC(=O)[C@H](CCCNC(=N)N)NC(=O)[C@H](CCCCN)NC(=O)[C@H](CCCCN)NC(=O)[C@H](CCCNC(=N)N)NC(=O)CNC(=O)[C@@H](N)Cc1ccc(O)cc1)C(C)C)[C@@H](C)O)C(=O)N[C@@H](Cc1ccccc1)C(=O)N[C@@H](CCC(N)=O)C(=O)O` [B-RQ], in series [1] (RD cells, B-RQ 0.46875 μM, 24 h, read-out: Cell viability (%)), the viability at 24 h, 0.46875 µM was 99%. In series [1] (RD cells, B-RQ 2.34375 μM, 24 h, read-out: Cell viability (%)), the viability at 24 h, 2.34375 µM came out at 99.1%. In series [1] (RD cells, B-RQ 4.6875 μM, 24 h, read-out: Cell viability (%)), the viability at 24 h, 4.6875 µM stood at 98.7%. Also, in series [1] (RD cells, B-RQ 9.375 μM, 24 h, read-out: Cell viability (%)), the viability at 24 h, 9.375 µM amounted to 99.3%. Further, the viability at 24 h, 18.75 µM in series [1] (RD cells, B-RQ 18.75 μM, 24 h, read-out: Cell viability (%)) was 97.8%. Further, the viability at 24 h, 37.5 µM in series [1] (RD cells, B-RQ 37.5 μM, 24 h, read-out: Cell viability (%)) was 99.4%. For the same compound, in series [1] (RD cells, B-RQ 75 μM, 24 h, read-out: Cell viability (%)), the viability at 24 h, 75 µM worked out at 96%. Moreover, in series [1] (RD cells, B-RQ 150 μM, 24 h, read-out: Cell viability (%)), the viability at 24 h, 150 µM came out at 95.5%. In addition, in series [1] (Table 1 (RD cells)), the CC50 at 24 h was over 75000 nM. Also, the “Cell viability (%)” value in series [2] (B-RQ 0.46875 μM) was 99.47% and 98.27%; in series [2] (B-RQ 2.34375 μM), 97.93% and 97.19%; in series [2] (B-RQ 4.6875 μM) it was 100.7775% and 96.97%; in series [2] (B-RQ 9.375 μM), 96.62% and 96.17%; in series [2] (B-RQ 18.75 μM), 97.36%; in series [2] (B-RQ 37.5 μM) it was 99.64% and 99.24%. Besides, the “Cell viability (%)” value in series [2] (B-RQ 75 μM) was 95.66%; in series [2] (B-RQ 150 μM), 95.94% and 95.32%. Moreover, the values for the IC50 in series [3] and in series [4] were 380 nM and 2290 nM, respectively.

Regarding MBP-EV71 2C protein, the “helicase activity (unwinding of HEX-labeled dsRNA substrate, gel electrophoresis)” value in series [5] is on record as “the addition of RQ inhibited the helicase activity of 2C (lane 5); also recorded: RQ inhibited the helicase activity of EV71 2C in a dose-dependent manner”; in series [6], “the control TAT did not affect the helicase activity of 2C (lane 4)”.
